Here are results for 4 molecules from patent US12502388B2, “Lanthionine synthetase C-like 2-based therapeutics” (NImmune Biopharma, Inc., priority 2014, dated 2025).

As a reminder, the Kd is the free concentration of one partner at which half of the binding sites on the other are occupied at equilibrium, for simple one-to-one binding.

The target in assay [1] is T1, LANCL2 (Homo sapiens, UniProt Q9NS86).
T1 sequence (Q9NS86 1-450): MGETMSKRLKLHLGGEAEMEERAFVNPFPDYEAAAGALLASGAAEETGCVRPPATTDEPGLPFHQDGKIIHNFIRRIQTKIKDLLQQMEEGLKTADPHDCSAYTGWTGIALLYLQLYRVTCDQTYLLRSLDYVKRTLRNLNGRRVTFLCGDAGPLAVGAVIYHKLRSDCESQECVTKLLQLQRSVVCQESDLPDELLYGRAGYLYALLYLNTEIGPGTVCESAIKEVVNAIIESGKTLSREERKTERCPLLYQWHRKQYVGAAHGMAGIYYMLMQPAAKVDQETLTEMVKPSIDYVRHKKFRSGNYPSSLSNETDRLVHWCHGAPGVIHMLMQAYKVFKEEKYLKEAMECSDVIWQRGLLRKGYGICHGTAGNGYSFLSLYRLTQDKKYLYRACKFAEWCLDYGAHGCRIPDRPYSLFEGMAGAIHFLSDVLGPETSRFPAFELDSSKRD
In words: Surface plasmon resonance (BIACORE T200) binding to immobilized LANCL2. The settings on record: for Kd: unit inferred, read-out: SPR KD value. An excerpt:
Kinetic determination of LANCL2-small molecule interaction. […] Data were generated in a dose dependent (5-8 titration points) manner in triplicate, and analyzed to determine binding model (Langmuir, conformational shift, etc.), real time associated and disassociation constants, and equilibrium dissociation constant. SPR technology allowed validation of specific LANCL2-phytochemical interactions as well as to gain gold-standard insight into mechanism and rate of binding. The experiments were performed on carboxymethyldextran (CM5) sensor chips by covalently attaching LANCL2 to by amine coupling. Flow cells 1 and 2 of the sensor chip were activated for 720 sec at 10 μl/min with of 1:1 mixture of 0.1 M N-hydroxysuccinimide (NHS) and 0.5 M 1-ethyl-3-(−3-dimethylaminopropyl)-carbodiimide hydrochloride (EDC). Stock LANCL2 (0.41 mg/mL) was diluted to 8.2 μg/mL (1:50 dilution) in 10 mM sodium acetate, pH 5.0 and injected over the activated flow cell 2 surface for 1000 sec at a flow rate of 10 μl/min. After the capture of LANCL2 on flow cell 2 (11000 RU), surfaces of flow cells 1 and 2 were deactivated by injecting 1M ethanolamine for 720 sec at 10 μl/min. The running buffer was 25 mM MOPS containing 0.05% T-20 and 0.15 M NaCl, pH 6.5. […] Each sample was injected for 60 sec (contact time) followed by a dissociation time of 60 sec at a flow rate of 100 μL/min. A stabilization time of 180 sec was used before the next injection. Data was analyzed with BIACORE™ T200 Evaluation Software (version 1) to determine the affinity binding constant (KD) using a 1:1 binding model.
We immobilized purified recombinant LANCL2 protein on BIACORE™ sensor chips and injected small molecules over the protein surface using the microfluidic system of the instrument. Changes in the total mass on chip surface were measured, which corresponds to the small binding to the protein. […] These fast interactions are beyond the technical abilities of the instrument. Therefore, reliable association rate constant (ka) and dissociation rate constant (kd) were not determined. The equilibrium dissociation constant (KD) is commonly used to describe the affinity between a ligand and a protein, such as how tightly a ligand binds to a particular protein. Ligand-protein affinities are influenced by non-covalent intermolecular interactions between the two molecules such as hydrogen bonding, electrostatic interactions, hydrophobic and Van der Waals forces. By plotting the equilibrium binding level against the compound concentration, we were able to measure the steady state affinity (KD) for each interaction (FIG. 8, panels B and D).
In this case we also immobilized purified recombinant LANCL2 protein on BIACORE™ sensor chips and injected small molecules over the protein surface using the microfluidic system of the instrument. Changes in the total mass on chip surface were measured, which corresponds to the small binding to the protein. […] This longer binding can potentially impact the activation of the LANCL2 pathway by triggering more efficacious anti-inflammatory and anti-diabetic and other therapeutic responses.

Assay [2] has as its system C57BL/6J mice with DSS colitis. On the procedure:
Mice. […] All mice were maintained in animal facilities.
DSS-induced colitis. Colitis was induced in C57BL/6J mice by administration of 5% (w/v) dextran sodium sulfate (DSS; molecular weight 42 kDa; ICN Biochemicals, Aurora, OH) added to the drinking water. Colonic inflammation was assessed 7 days after DSS treatment. […] DSS-treated, vehicle-treated mice, and iv. […] Twelve mice were included in each group.
Quantitative Real-Time PCR. […] Primers were designed using Oligo 6 software.

Assay [3] deals with db/db mice.
Text: Mice and dietary treatments. […] The mice were maintained in animal facilities.
(§1) Assessment of body weight and glucose tolerance.
The subject of assay [4] is RAG2-/- mice transferred with naive CD4+ T cells.
The subject of assay [5] is NOD mice.
Text: Mice. […] The mice were maintained in animal facilities.
as §1
Assay [6] has as its system C57BL/6 mice fed a high-fat diet.
Assay [7] concerns mice infected with influenza virus.
Experimental: Intranasal infection of mice with influenza virus. Mice were anesthetized with 2-5% isofluorane using a vaporizer station, and 50 μL of virus dilution at 10^3 TCID50 was administered through the nostrils (25 μL each one). Mice were then placed in their cages and watched for recovery of anesthesia.
This procedure caused no pain or distress.
Monitoring of mice and disease activity and weighing. Mice were monitored once daily after the infection (or every 4 hours if they developed severe clinical signs of disease equivalent to disease score 2) and were euthanized prior to the planned endpoint if they developed significant signs of illness as measured by weight loss (i.e., 25% gradual loss of initial body weight), dehydration, loss of mobility, guarding/protection of painful area, ruffled fur (piloerection). Mice were weighed once a day for the duration of the experiment.
Assay [8] relates to IL-10-/- mice with chronic colitis.
Where [9] appears, read: flow cytometry, wild-type vs LANCL2-/-.
Setting [10] is: CD4+ T cells from LANCL2-/- donors.
Where [11] appears, read: gene expression vs untreated mice.
[12] abbreviates: gene expression, dose-dependent.

“Also recorded” adds a separate entry of the source.

Consider `O=C(Nc1ccc(NC(=O)c2cccc(-c3nc4ccccc4[nH]3)c2)cc1)c1cccc(-c2nc3ccccc3[nH]2)c1` [BT-6], for which, in assay [1], the “binding to LANCL2 by SPR in words” value is recorded as “strongly bind”; the “on and off rates in SPR sensorgrams” value is “very fast to bind but not as fast as off”.

Take `O=C(c1cccc(-c2nc3ccccc3[nH]2)n1)N1CCN(C(=O)c2cccc(-c3nc4ccccc4[nH]3)n2)CC1` [BT-11]: in assay [1], the “binding to LANCL2 by SPR in words” value is “strongly bind”; the “on and off rates in SPR sensorgrams” value is “very fast on rates and very fast off rates”; the Kd turned out to be 6.3 µM. Moreover, in assay [2] (5% DSS, 7-day challenge, oral BT-11 vs vehicle), the disease activity score entry was “significantly improved”. In addition, in assay [2] (10 to 80 mg/Kg), the “leukocytic infiltration, mucosal thickening and epithelial erosion, dose-response” value is given as “decreased in mice with colitis as the dose of BT-11 was increased”. Moreover, the “histopathological lesions of the colonic mucosa in LANCL2-/- mice” value in assay [2] (LANCL2-/- mice, vehicle or BT-11) was “the loss of LANCL2 completely abrogates the effect of BT-11”. Also, in assay [2] (LANCL2 knockout mice), the “upregulation of IL-10 secretion in colon and spleen” value is listed as “completely abrogated in LANCL2 knockout mice”. For the same molecule, the “decrease of inflammation in the gut mucosa (leukocytic infiltration, epithelial erosion, mucosal thickening)” value in assay [2] (colonic histopathology) worked out at 5 times. Besides, the “macroscopic lesions in spleen, MLNs and colon” value in assay [2] (day 7 post-challenge) was “significantly decreased”. Also, the “colonic IL-10 expression by flow cytometry” value in assay [2] (dose-response study) is “follows dose-response dynamics”. The “FOXP3 expression in the MLN” value in assay [2] (dose-response study, flow cytometry) is listed as “dose-dependent”. Further, the “upregulation of MHC-II+ CD11c+ granulocytes” value in assay [2] (flow cytometry, colon, wild-type vs LANCL2-/-) is reported as “LANCL2-dependent”. In assay [2] (flow cytometry, doses 10, 20, 40, 80 mg/Kg), the “reduction of colonic TNFα expressing cells” value was “significantly different at both 40 and 80 mg/Kg of BT-11, but not on lower doses”. In addition, in assay [2] (setting [9]), the “reduction of MCP1 in colon and MLN” value is listed as “LANCL2-dependent”; the “secretion of TNFα in the colon” value was “LANCL2-dependent”. In addition, in assay [2] (mouse, in vivo), the “colonic gene expression of IL-10” value is listed as “upregulated”, the “colonic gene expression of LANCL2” value is listed as “upregulated” and the “colonic gene expression of TNFα” value is “down-regulated”. The “macroscopic score in colon, MLN and spleen in LANCL2-/- mice” value in assay [2] (wild-type vs LANCL2-/- littermates) is on record as “the loss of LANCL2 abrogated the decrease in macroscopic score”. Besides, in assay [2] (wild-type vs LANCL2-/- mice), the “recovery from colitis (disease activity index) in LANCL2-/- mice” value is on record as “the loss of LANCL2 prevented the mice to recover”. Also, in assay [3] (0 to 265 minutes after IP glucose), the “glucose levels following glucose challenge” value is listed as “fell toward normal levels more rapidly”. Moreover, the fasting blood glucose entry in assay [3] (80 mg/Kg daily oral gavage, weeks 1 and 3) is reported as “significantly decreased”. Further, the “glucose prior to the IP glucose challenge (time 0)” value in assay [3] (12-h fast) is “significantly decreases”. Further, the “effects on disease activity and histopathology with PPARγ-/- donor CD4+ T cells” value in assay [4] (80 mg/Kg) is reported as “PPARγ independent”. Also, the “macroscopic scores in spleen, MLNs, colon and ileum” value in assay [4] (80 mg/Kg, 11 weeks) was “greatly and significantly reduced”. Besides, in assay [4] (setting [10]), the “decrease in leukocytic infiltration, epithelial erosion and mucosal thickening in LANCL2-/- transferred recipients” value is “greatly abrogated”; the “effect on disease activity index with LANCL2-/- donor cells” value is “completely abrogated with the loss of LANCL2”. In assay [4] (LANCL2-/- cells transferred, 80 mg/Kg), the “macroscopic scores with loss of LANCL2” value was “the loss of LANCL2 completely abrogated the effect of BT-11”. Further, in assay [4] (flow cytometry), the “IFNγ levels in total CD45+ leukocytes in the colon” value is recorded as “decrease”; the “IL-10 in CD4+ T cells in the colonic mucosa” value was “promoting the expression”; the “expression of IFNγ in the CD45+ population in MLN and spleen” value is “decreased”; the “levels of FOXP3 and IL-10 in spleen and MLN” value is “increases”. In addition, the “regulatory CD4+ T cells (FOXP3) in the colonic mucosa” value in assay [4] (flow cytometry) is “upregulated”. In assay [4] (flow cytometry, 11 weeks of treatment), the “infiltrating F4/80+ CD11b+ pro-inflammatory macrophages in the colon” value was “significantly lower level”. Moreover, the weight loss entry in assay [4] (from 7 weeks until end, vs vehicle) is listed as “significantly improved”. In assay [4] (histopathology), the “epithelial erosion in the colon” value was “significantly lower”; the “inflammation: leukocytic infiltration and mucosal thickening in colon and ileum” value is given as “significantly reduced inflammation”. Besides, the “disease activity index score” value in assay [4] (wild-type CD4+ T cells transferred, BT-11 vs vehicle) is reported as “significantly reduced”. Moreover, in assay [5] (12 h fasting, weeks 0-11, 80 mg/kg/d vs vehicle), the fasting blood glucose result is given as “significantly lower levels”. In addition, in assay [5] (vs vehicle), the “clinical histopathological lesions in the pancreas” value is on record as “significantly reduces”. For the same molecule, in assay [5] (week 5), the “insulin levels in plasma” value is on record as “significantly increased levels”. Further, in assay [6] (2 g/Kg glucose IP after 12 h fasting), the “normalization of blood glucose after IP glucose challenge” value is reported as “significantly faster”. Besides, in assay [6] (flow cytometry), the “F4/80+ CD11b+ pro-inflammatory macrophages in white adipose tissue” value was “significantly reduced” and the “pro-inflammatory granulocytes (GR1+Ly6chigh) in white adipose tissue” value is listed as “significantly reduced”. In addition, in assay [6] (setting [11]), the “expression of LANCL2 in WAT” value was “higher expression levels”, the “mRNA level of MCP-1 in WAT” value is on record as “significantly lower mRNA levels” and the “mRNA level of TNFα in WAT” value was “significantly lower mRNA levels”. For the same molecule, the fasting blood glucose result in assay [6] (week 12 of high-fat feeding, vs vehicle) was “significantly decreased”. Besides, in assay [7] (80 mg/Kg, from day 6 post-infection, vs vehicle), the “morbidity (mice losing over 15% of body weight)” value is “less morbidity”. Also, the “clinical score for physical appearance” value in assay [7] (40 and 80 mg/Kg) was “significantly reduced”. Moreover, the activity clinical score result in assay [7] (from day 3, oral 80 or 40 mg/Kg daily) was “significantly reduced”. Also, the “disease activity index scores, highest dose vs lower doses” value in assay [8] (80 mg/Kg, from week 13 to end) is reported as “significantly reduced the scores in comparison to those treated with either 20 or 40 mg/Kg”. In assay [8] (19 weeks, concentrations as low as 20 mg/Kg), the “macroscopic scores in spleen, MLNs and colon” value is “greatly and significantly reduced”. For the same molecule, the “disease activity index scores” value in assay [8] (20, 40 and 80 mg/Kg vs vehicle) is “significantly decreased”. Also, the “colonic histopathology (leukocytic infiltration, epithelial erosion, mucosal thickening)” value in assay [8] (H&E colon sections) is “significantly reduced inflammation”. Also, in assay [8] (flow cytometry), the “FOXP3-expressing CD4+ T cells in MLN and spleen” value is listed as “upregulation”; the “FOXP3-expressing CD4+ T cells in the colonic LP” value is given as “upregulation”; the “effector Th17 cells (RORγt) in the MLN” value was “downregulated”; the “percentage of F4/80+ macrophages in colonic lamina propria” value is “significantly decreased”. In assay [8] (flow cytometry), the “percentage of MHC-II+ CD11c+ dendritic cells in colonic lamina propria” value was “significantly decreased” and the “percentage of effector Th1 cells in colonic lamina propria” value is reported as “significantly decreased”. For the same molecule, the “Th1 cells in the spleen” value in assay [8] (flow cytometry, dose response) is “downregulation”. Further, in assay [8] (setting [12]), the “colonic expression of LANCL2” value is listed as “upregulates” and the “colonic expression of TNFα” value is listed as “downregulates”.

In the case of `O=C(c1cccc(-c2nc3ccccc3[nH]2)n1)N1CCN(C(=O)c2cccc(-c3nc4ccccc4o3)n2)CC1` [BT-15], in assay [1], the “binding to LANCL2 by SPR in words” value is reported as “strongly bind”; the “on and off rates in SPR sensorgrams” value is “very fast on rates and very fast off rates”; the Kd was 11.4 µM.

On to `O=C1CC=C(/C=C/c2ccc(C(=O)O)o2)CC1` [BT-ABA-5a], for which, in assay [1], the “binding to LANCL2 by SPR in words” value is “strongly bind”; the “on and off rates in SPR sensorgrams” value is on record as “very fast to bind but not as fast as off; also recorded: slowest off rate”.
